Patent publication US9464078B2, “Monohydrate of azaadamantane derivatives” (AbbVie Inc., priority 2010, dated 2016)
Counter-ions that a name gives are not always drawn. Like-named read-outs stand apart in the source and are kept apart here.

Assays:
Type in all cases: physicochemical
[1] = critical water activity for hydrate formation (PXRD of solids from methanol/water suspensions); details: ambient temperature
Source text: The critical water activity of the monohydrate salt can be determined by mixing different ratios of organic solvents and water. The analysis of the water activity for these solvent mixtures are temperature dependent. Determination of the critical water activity typically comprises the following steps: (1) preparation of solvent mixtures with a range of water activities; (2) saturation of the organic solvent/water mixtures with the monohydrate salt; (3) the optional filtration of the saturated solution; (4) addition of a 1:1 solid mixture (e.g., 25 mg/phase) of the anhydrous and hydrated phases to the saturated organic solvent/water mixtures; (5) equilibration at the temperature of interest (3-5 days); and (6) analysis of the residual solids by the appropriate technique, as understood by one skilled in the art (e.g., PXRD) to determine the identity of the stable phases.
The inventors determined the critical water activity for (4s)-4-(5-phenyl-1,3,4-thiadiazol-2-yloxy)-1-azatricyclo[3.3.1.1^3,7]decane dihydrogen citrate monohydrate at ambient temperature. Specifically, the inventors developed suspensions of the crystalline product in mixtures of methanol and water, with water activities of 0.20, 0.15, 0.10, and 0.05, performing powder X-ray diffraction patterns for each suspension, respectively. […]

solubility in water = experiment: solubility in water
[2] = hygroscopicity by dynamic moisture sorption balance
Procedure: Dynamic moisture sorption balance (DMSB) was used to evaluate the hygroscopicity of the crystalline monohydrate compound. The hygroscopicity was evaluated using a dynamic moisture sorption balance (IGAsorp, Hiden Isochema) equipped with a data analyzer. The balance was calibrated using standardized weights of 20, 50, and 100 mg. The RH probe was calibrated using standardized salt solutions of lithium chloride, potassium carbonate, and sodium chloride. During the experiment, the flow rate of nitrogen gas at different relative humidity was 250 mL/min. For anhydrous materials, the sample was first dried with dry nitrogen at 50° C. for two hours. The temperature was then set to 25° C. and the relative humidity was changed from 0% to 90% and back to 0% at 10% intervals. For hydrated samples the temperature was set to 25° C. and the relative humidity was changed at 10% intervals from 30% to 90%, back to 10%, and then to 90%. For each step described herein, a one hour equilibration time period was used.

With c1ccc(-c2nnc(O[C@@H]3C4CC5C[C@H]3C[N@](C5)C4)s2)cc1 [(4s)-4-(5-phenyl-1,3,4-thiadiazol-2-yloxy)-1-azatricyclo[3.3.1.1^3,7]decane dihydrogen citrate] the “water activity of solvent at which the salt exists as the anhydrate” value [1] was at most 0.10 and the “water activity of solvent at which the salt exists as the monohydrate” value [1] was at least 0.15.
For c1ccc(-c2nnc(O[C@@H]3C4CC5C[C@H]3C[N@](C5)C4)s2)cc1 [dihydrogen citrate anhydrate, (4s)-4-(5-phenyl-1,3,4-thiadiazol-2-yloxy)-1-azatricyclo[3.3.1.1^3,7]decane dihydrogen citrate], the solubility (solubility in water) was 28 mg/mL and the “hygroscopicity (in words)” value [2] was “non-hygroscopicity”.
For c1ccc(-c2nnc(O[C@@H]3C4CC5C[C@H]3C[N@](C5)C4)s2)cc1 [dihydrogen citrate monohydrate, (4s)-4-(5-phenyl-1,3,4-thiadiazol-2-yloxy)-1-azatricyclo[3.3.1.1^3,7]decane dihydrogen citrate monohydrate], the “hygroscopicity (in words)” value ([2]; citrate monohydrate) was “non-hygroscopic”, the “hygroscopicity (in words)” value ([2]; listed as crystalline monohydrate of (4s)-4-(5-phenyl-1,3,4-thiadiazol-2-yloxy)-1-azatricy, citrate monohydrate) was “non-hygroscopic” and the “weight change by dynamic moisture sorption” value ([2]; relative humidities from 0% to 90%, listed as crystalline monohydrate of (4s)-4-(5-phenyl-1,3,4-thiadiazol-2-yloxy)-1-azatricy, citrate monohydrate) was under 0.2%.
